Laboratory results from US9757375B2, “Compounds that inhibit human DNA ligases and methods of treating cancer” (University of Maryland, Baltimore, priority 2007, dated 2017).
“Also recorded” adds a separate entry of the source. Like-named read-outs stand apart in the source and are kept apart here.

Key:
[1] = target: T1, human DNA ligase III (Homo sapiens, UniProt P49916); test: High-throughput fluorescence-based DNA joining (ligation) assay; assay type: biochemical; conditions: for inhibition of human DNA ligase III, in words: in vitro screen
T1 sequence (P49916 1-862 isoform P49916-4): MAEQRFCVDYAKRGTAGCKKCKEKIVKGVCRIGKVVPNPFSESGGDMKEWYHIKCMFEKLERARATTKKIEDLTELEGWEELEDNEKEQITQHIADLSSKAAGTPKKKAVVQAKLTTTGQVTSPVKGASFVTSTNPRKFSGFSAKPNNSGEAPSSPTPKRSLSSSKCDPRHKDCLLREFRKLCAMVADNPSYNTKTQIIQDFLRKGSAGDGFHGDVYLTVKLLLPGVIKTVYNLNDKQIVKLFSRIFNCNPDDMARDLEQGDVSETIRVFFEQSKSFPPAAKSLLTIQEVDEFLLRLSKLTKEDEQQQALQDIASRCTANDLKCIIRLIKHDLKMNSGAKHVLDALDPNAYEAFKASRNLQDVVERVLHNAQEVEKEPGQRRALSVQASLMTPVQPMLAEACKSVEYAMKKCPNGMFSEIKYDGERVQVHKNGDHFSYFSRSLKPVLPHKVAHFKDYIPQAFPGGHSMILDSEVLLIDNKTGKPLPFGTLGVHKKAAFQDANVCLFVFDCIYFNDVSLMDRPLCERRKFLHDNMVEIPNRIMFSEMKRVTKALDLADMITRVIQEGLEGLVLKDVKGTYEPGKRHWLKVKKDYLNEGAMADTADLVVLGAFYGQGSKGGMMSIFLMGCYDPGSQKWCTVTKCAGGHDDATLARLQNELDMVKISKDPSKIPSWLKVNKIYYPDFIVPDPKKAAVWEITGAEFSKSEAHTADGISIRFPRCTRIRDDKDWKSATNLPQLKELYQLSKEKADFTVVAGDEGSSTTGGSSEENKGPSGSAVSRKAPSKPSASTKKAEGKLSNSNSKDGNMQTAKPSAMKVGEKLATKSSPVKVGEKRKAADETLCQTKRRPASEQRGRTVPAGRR
Procedure, shortened: (§1)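 Ligation joins an AF488-labelled and a BHQ1-labelled oligonucleotide. After denaturation and renaturation with a 20-fold excess of unlabelled competitor strand, the product forms a quenched hairpin, so joining is read as loss of 518 nm fluorescence. Ligase III used a nicked duplex; ligase IV used two duplexes with short complementary single-strand ends.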

[2] = target: human DNA ligase IV (Homo sapiens, UniProt P49917); test: as above; assay type: biochemical; conditions: for % activity Inhibition hLigIV 100 uM: Ø not defined (0 in Table 5A)
Sequence of human DNA ligase IV (P49917 whole entry): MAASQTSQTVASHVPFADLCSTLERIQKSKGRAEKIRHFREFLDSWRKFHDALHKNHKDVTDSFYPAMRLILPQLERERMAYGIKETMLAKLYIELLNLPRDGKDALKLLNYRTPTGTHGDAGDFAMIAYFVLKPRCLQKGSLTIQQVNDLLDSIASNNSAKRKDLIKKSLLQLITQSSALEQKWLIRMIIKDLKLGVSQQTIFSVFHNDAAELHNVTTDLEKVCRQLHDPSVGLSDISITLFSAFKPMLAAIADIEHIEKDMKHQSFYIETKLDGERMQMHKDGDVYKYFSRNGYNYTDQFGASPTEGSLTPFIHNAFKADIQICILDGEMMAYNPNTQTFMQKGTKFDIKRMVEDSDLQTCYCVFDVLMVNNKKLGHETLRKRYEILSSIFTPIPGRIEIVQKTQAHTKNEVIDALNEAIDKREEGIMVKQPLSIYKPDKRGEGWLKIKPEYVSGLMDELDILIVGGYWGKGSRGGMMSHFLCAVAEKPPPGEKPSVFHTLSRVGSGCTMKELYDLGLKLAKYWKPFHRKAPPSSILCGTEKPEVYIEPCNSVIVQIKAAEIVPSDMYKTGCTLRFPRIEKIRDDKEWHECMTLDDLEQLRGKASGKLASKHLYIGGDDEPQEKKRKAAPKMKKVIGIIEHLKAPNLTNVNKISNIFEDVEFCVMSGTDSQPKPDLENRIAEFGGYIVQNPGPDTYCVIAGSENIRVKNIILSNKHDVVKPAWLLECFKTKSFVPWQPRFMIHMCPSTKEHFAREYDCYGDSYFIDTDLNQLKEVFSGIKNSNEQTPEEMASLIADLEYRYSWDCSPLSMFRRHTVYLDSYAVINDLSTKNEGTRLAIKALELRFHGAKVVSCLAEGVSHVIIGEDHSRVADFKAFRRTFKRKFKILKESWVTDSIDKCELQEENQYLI
Sequence of human DNA ligase IV (Q13426 whole entry partner): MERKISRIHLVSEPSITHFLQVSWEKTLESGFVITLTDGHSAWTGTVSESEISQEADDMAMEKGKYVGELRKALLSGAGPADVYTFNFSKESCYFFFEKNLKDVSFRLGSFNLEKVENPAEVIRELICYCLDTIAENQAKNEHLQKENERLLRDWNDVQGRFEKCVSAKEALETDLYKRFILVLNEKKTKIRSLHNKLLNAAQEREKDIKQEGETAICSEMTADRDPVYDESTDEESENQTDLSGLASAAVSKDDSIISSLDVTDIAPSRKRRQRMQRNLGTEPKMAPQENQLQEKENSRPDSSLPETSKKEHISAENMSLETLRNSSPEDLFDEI
Procedure, shortened: as §1

[3] = target: T2, hLigI (Homo sapiens, UniProt P18858); test: as above; assay type: biochemical; conditions: for inhibition of hLigI (DNA ligase I), in words: in vitro screen, 100 μmol/L, the 15 hLigI inhibitors inhibited by >50%
T2 construct: made in house
T2 sequence (P18858 whole entry): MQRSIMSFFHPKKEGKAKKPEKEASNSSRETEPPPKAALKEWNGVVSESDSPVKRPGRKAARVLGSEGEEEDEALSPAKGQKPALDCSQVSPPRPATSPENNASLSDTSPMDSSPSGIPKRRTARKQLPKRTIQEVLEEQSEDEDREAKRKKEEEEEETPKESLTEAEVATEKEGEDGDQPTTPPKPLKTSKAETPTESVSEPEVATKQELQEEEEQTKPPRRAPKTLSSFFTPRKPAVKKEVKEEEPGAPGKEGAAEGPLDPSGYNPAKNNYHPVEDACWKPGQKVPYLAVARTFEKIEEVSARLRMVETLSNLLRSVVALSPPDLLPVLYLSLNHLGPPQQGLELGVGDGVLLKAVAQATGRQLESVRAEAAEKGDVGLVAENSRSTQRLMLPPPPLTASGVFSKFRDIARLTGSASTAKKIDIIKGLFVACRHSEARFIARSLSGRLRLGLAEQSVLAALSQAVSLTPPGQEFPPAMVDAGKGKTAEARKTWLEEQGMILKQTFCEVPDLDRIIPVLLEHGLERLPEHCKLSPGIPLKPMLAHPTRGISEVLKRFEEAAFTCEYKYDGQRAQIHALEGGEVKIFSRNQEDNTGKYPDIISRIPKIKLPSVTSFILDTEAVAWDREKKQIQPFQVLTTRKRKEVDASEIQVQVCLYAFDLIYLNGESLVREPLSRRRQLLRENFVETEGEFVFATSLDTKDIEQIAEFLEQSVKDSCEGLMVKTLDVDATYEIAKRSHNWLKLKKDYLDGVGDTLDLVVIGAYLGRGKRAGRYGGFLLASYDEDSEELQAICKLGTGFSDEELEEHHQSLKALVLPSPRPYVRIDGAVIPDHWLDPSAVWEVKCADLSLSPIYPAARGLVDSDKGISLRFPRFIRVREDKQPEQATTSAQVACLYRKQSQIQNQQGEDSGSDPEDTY
Procedure, shortened: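 Nicked DNA substrate (10 pmol) was incubated with 0.25 pmol hLigI, with or without 100 μmol/L test compound, in duplicate. Afterwards the DNA was denatured and renatured with a 20-fold excess of unmodified oligonucleotide. Ligation forms an AF488/BHQ1 hairpin, read as reduced fluorescence at 518 nm.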

[4] = target: T3, T4 DNA ligase (Enterobacteria phage T4, UniProt P00970); test: High-throughput fluorescence-based DNA joining assay, non-specific inhibitor control; assay type: biochemical, bacteriophage T4
T3 construct: purchased NEB
T3 sequence (P00970 1-487): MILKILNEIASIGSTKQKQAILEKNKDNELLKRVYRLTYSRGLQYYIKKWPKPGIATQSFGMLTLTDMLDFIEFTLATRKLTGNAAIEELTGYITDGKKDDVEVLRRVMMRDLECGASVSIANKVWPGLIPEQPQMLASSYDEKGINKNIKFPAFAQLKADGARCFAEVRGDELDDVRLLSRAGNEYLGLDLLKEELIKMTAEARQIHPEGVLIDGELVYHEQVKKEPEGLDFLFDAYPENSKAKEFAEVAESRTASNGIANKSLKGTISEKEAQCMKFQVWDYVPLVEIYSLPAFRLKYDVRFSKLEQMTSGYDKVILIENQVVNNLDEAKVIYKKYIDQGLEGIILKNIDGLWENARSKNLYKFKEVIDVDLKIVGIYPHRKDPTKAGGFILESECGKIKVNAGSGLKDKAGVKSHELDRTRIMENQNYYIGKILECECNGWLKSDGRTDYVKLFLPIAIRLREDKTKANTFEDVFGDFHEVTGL
Procedure, shortened: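 This counter-screen used a FRET-based DNA joining assay. Duplicate reactions held 10 pmol nicked DNA substrate and 10 units T4 DNA ligase, with or without 100 μmol/L compound. T4 ligase lacks the DNA-binding domain targeted in silico, so compounds inhibiting it were flagged as non-specific, likely DNA-binding.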

[5] = 100 μM, read-out: In vitro % inhib hLigIII 100
[6] = 100 uM, Ø not defined (0 in Table 5A), read-out: % activity Inhibition hLigIII 100 uM
[7] = read-out: In vitro % inhib hLigIV 100
[8] = 100 uM, read-out: % activity Inhibition hLigI 100 uM
[9] = 100 μM, read-out: In vitro % inhib hLigI 100
[10] = 100 μM, read-out: In vitro % inhib T4 100

Structure (SMILES) | inhibition at 100 µM [1, 5] [%] | inhibition at 100 µM [1, 6] [%] | inhibition of human DNA ligase III, in words [1] | inhibition at 100 µM ([1]; read-out: % of inhibition @ 100 μM (Helen's data) hLigIII) [%] | inhibition at 100 µM ([2]; read-out: % of inhibition @ 100 μM (Helen's data) hLigIV) [%] | inhibition at 100 µM [2, 7] [%] | % activity Inhibition hLigIV 100 uM [2] | inhibition at 100 µM [3, 8] [%] | inhibition at 100 µM ([3]; 100 μM, read-out: % of inhibition @ 100 μM (Helen's data) hLigI) [%] | inhibition at 100 µM [3, 9] [%] | inhibition of hLigI (DNA ligase I), in words [3] | inhibition at 100 µM [4, 10] [%] | inhibition at 100 µM ([4]; read-out: % activity Inhibition LigT4 100 uM) [%]
O=C(c1ccc(O)cc1)c1ccccc1O [Compound 200] | 60 ± 5 | 59.5 ± 5.2 | specifically inhibit DNA ligases I and III | 60 | < 20 | 0 | Ø | 50.7 ± 10.9 | 51 | 51 ± 11 | inhibited hLigI; also recorded: specifically inhibit DNA ligases I and III | 0 | 0
CCCCC(=O)c1ccc(O)cc1O [Compound 213] | 25 ± 1 | 25.2 ± 0.46 | specifically inhibit DNA ligases I and III |  |  | 0 | Ø | 36.4 ± 8.6 |  | 36 ± 9 | specifically inhibit DNA ligases I and III | 0 | 
